From publication PMC11860776 (Viruses, 2025)
“Also recorded” adds a separate entry of the source. Read-outs that look alike come from different tables or passages of the source.

Columns and labels:
B19V [1] = assay: Antiviral assay: B19V DNA replication by qPCR in EPCs; assay type: cell-based, Human parvovirus B19; details: B19V DNA 48 hpi vs 2 hpi, table: mean (95% CI)
B19V [2] = test system: B19V; design: method as in earlier work; details: UT7/EpoS1 cells, IVM at 10 μM; cited from earlier work
[3] = biological target: T1, mIMPα2ΔIBB:NS1 NLS interaction (Mus musculus, UniProt P52293); assay: AlphaScreen inhibition assay of the IMPα:NS1-NLS interaction; assay type: binding
T1 construct: made in house; host or cells: bacteria

EPCs = assay: Cell cytotoxicity assay (WST-8, CCK-8) in EPCs; assay type: cell-based, human; details: for CC50: WST-8 based assay, TLTM: too low to measure; for cell toxicity: every concentration tested
UT7/EpoS1 cells = assay: Cell cytotoxicity assay (alamarBlue HS) in UT7/EpoS1 cells; assay type: cell-based; details: for CC50: 6 h + 48 h with compound, alamarBlue, table: mean (95% CI)
B19V [4] = assay: Antiviral assay: B19V DNA replication by qPCR in UT7/EpoS1 cells; assay type: cell-based, Human parvovirus B19; details: for EC50: B19V DNA 48 hpi vs 2 hpi, table: mean (95% CI); for inhibition of viral replication: compounds at 10 μM, 48 hpi vs 2 hpi
[5] = titration 0-5 μM, average ± SD, 4 independent experiments, read-out: IC50

Row | Compound | IC50 [3, 5] [µM] | CC50 (UT7/EpoS1 cells) [µM] | EC50 (B19V [4]) [µM] | inhibition of viral replication (B19V [4]) | further results
1 | CC[C@H](C)[C@H]1O[C@]2(CC[C@@H]1C)C[C@@H]1C[C@@H](C/C=C(\C)[C@@H](O[C@H]3C[C@H](OC)[C@@H](O[C@H]4C[C@H](OC)[C@@H](O)[C@H](C)O4)[C@H](C)O3)[C@@H](C)/C=C/C=C3\CO[C@@H]4[C@H](O)C(C)=C[C@@H](C(=O)O1)[C@]34O)O2 [IVM, Ivermectin] | 0.0118 ± 0.004 | 14.5 | 7.6 | inhibited viral replication | EC50 (B19V [1]): 3.3 µM; inhibition of B19V viral replication (B19V [2]): could inhibit B19V viral replication; AlphaScreen counts (mIMPα2ΔIBB:NS1 NLS interaction) ([3]; IVM 10 μM (text; figure legend says 2.5 μM) vs absence): significant reduction; CC50 (EPCs): TLTM; cell toxicity (EPCs): extremely toxic at every concentration tested; concentrations causing significative toxicity (UT7/EpoS1 cells): above 12.5 μM; concentration from which strong inhibition of B19V DNA replication starts (B19V [4]): ≥ 6 µM
2 | CC(Nc1nc(N2CCCC2)nc2ccccc12)c1ccccc1 (stereo not shown) [Importazole] | – | 30 | 13.4 | inhibited viral replication; also recorded: inhibited viral replication more than IVM | –
3 | CO/N=C1\C[C@]2(C[C@@H]3C[C@@H](C/C=C(\C)C[C@@H](C)/C=C/C=C4\CO[C@@H]5[C@H](O)C(C)=C[C@@H](C(=O)O3)[C@]45O)O2)O[C@H](/C(C)=C/C(C)C)[C@H]1C [Moxidectin] | 0.0157 ± 0.0012 | – | – | – | –
4 | CO[C@H]1C[C@H](O[C@@H]2/C(C)=C/C[C@@H]3C[C@@H](C[C@]4(CC[C@H](C)[C@@H](C5CCCCC5)O4)O3)OC(=O)[C@@H]3C=C(C)/C(=N/O)[C@H]4OC/C(=C\C=C\[C@@H]2C)[C@]43O)O[C@@H](C)[C@@H]1O [Selamectin] | – | – | – | – | IC50 [3]: 0.0508 ± 0.0029 µM
5 | Avermectin B1 | 0.0361 ± 0.0177 | – | 9.8 | inhibited viral replication more than IVM | –
6 | Emamectin benzoate [Emamectin benozate] | 0.0099 ± 0.003 | – | – | – | –
7 | Eprinomectin | 0.0409 ± 0.0099 | 15.9 | 3.2 | inhibited viral replication more than IVM | EC50 (B19V [1]): 6.5 µM; CC50 (EPCs): TLTM; cell toxicity (EPCs): extremely toxic at every concentration tested
8 | Milbemycin oxime | 0.0269 ± 0.0159 | – | – | – | –
